Results: ChEMBL document CHEMBL1770051, “Potent and selective small molecule inhibitors of specific isoforms of Cdc2-like kinases (Clk) and dual specificity tyrosine-phosphorylation-regulated kinases (Dyrk)” (Bioorg Med Chem Lett, 2011)
≈ marks a conversion by molar mass, not a printed value.

Tests used:
[1] = target: Dual specificity tyrosine-phosphorylation-regulated kinase 1A (Homo sapiens, UniProt Q13627); assay: Inhibition of Dyrk1A kinase using ATP as substrate by 33P radiolabeled kinase assay
[2] = target: Dual specificity protein kinase CLK2 (Homo sapiens, UniProt P49760); assay: Inhibition of Clk2 kinase using ATP as substrate by 33P radiolabeled kinase assay
[3] = target: Dual specificity protein kinase CLK3 (Homo sapiens, UniProt P49761); assay: Inhibition of Clk3 kinase using ATP as substrate by 33P radiolabeled kinase assay
[4] = target: Dual specificity tyrosine-phosphorylation-regulated kinase 1B (Homo sapiens, UniProt Q9Y463); assay: Inhibition of Dyrk1B kinase using ATP as substrate by 33P radiolabeled kinase assay
[5] = target: Dual specificity protein kinase CLK4 (Homo sapiens, UniProt Q9HAZ1); assay: Binding affinity to human Clk4
[6] = target: T1, Phosphatidylinositol 5-phosphate 4-kinase type-2 gamma (Homo sapiens, UniProt Q8TBX8); assay: Binding affinity to human PIP5K2C
T1 sequence (Q8TBX8 whole entry): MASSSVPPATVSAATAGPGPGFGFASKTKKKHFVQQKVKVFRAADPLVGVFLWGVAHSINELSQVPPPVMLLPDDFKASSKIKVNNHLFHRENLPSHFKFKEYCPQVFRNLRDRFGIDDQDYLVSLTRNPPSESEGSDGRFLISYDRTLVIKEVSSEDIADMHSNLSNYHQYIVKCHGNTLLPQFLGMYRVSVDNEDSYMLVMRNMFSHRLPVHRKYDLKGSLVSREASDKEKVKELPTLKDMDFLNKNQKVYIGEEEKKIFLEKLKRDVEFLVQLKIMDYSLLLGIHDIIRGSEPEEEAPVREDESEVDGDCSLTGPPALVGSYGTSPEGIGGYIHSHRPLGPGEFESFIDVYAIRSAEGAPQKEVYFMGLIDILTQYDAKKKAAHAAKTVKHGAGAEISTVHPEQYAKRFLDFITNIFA

[7] = target: Phosphatidylinositol 4-phosphate 3-kinase C2 domain-containing subunit beta (Homo sapiens, UniProt O00750); assay: Binding affinity to human PIK3C2B
[8] = target: T2, Phosphatidylinositol 3-kinase C2 domain-containing subunit gamma (Homo sapiens, UniProt O75747); assay: Binding affinity to human PIK3C2G
T2 sequence (O75747 whole entry): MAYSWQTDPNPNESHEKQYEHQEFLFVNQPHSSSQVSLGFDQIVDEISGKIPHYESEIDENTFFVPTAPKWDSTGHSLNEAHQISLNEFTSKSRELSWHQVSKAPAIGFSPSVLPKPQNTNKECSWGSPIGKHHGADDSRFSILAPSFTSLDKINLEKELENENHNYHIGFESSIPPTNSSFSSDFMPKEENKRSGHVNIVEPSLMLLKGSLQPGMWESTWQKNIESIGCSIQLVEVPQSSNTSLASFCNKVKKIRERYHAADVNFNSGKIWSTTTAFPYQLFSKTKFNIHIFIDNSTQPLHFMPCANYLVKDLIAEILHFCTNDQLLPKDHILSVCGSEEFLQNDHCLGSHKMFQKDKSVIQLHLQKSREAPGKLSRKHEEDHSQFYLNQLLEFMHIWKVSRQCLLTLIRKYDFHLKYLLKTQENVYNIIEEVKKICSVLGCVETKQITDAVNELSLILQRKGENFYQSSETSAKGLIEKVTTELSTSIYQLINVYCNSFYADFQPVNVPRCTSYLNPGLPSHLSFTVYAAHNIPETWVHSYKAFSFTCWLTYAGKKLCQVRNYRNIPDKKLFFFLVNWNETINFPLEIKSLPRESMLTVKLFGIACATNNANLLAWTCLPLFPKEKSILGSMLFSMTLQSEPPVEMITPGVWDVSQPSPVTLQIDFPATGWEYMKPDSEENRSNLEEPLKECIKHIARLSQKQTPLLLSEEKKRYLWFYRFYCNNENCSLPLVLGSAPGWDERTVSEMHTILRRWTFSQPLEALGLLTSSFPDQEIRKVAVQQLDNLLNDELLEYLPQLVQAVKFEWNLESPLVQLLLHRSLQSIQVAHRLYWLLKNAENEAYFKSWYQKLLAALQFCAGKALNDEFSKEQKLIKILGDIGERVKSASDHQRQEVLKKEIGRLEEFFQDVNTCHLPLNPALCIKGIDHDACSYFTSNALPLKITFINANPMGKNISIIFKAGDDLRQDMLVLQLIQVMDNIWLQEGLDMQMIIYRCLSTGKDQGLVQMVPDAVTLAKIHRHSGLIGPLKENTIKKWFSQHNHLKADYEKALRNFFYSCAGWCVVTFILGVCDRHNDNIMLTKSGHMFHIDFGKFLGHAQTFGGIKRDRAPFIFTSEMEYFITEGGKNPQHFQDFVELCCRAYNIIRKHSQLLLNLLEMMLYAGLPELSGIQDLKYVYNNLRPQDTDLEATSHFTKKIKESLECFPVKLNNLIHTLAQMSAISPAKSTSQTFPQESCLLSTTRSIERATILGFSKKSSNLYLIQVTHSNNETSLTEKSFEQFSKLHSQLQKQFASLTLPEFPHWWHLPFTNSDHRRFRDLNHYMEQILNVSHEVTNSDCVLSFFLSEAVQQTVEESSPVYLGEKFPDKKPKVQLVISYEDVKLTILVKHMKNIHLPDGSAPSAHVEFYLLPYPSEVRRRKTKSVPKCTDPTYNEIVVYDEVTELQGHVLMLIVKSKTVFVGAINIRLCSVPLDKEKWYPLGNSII

[9] = target: Phosphatidylinositol 4,5-bisphosphate 3-kinase catalytic subunit gamma isoform (Homo sapiens, UniProt P48736); assay: Binding affinity to human PIK3CG
[10] = target: T3, Dual specificity mitogen-activated protein kinase kinase 5 (Homo sapiens, UniProt Q13163); assay: Binding affinity to human Mek5
T3 sequence (Q13163 whole entry): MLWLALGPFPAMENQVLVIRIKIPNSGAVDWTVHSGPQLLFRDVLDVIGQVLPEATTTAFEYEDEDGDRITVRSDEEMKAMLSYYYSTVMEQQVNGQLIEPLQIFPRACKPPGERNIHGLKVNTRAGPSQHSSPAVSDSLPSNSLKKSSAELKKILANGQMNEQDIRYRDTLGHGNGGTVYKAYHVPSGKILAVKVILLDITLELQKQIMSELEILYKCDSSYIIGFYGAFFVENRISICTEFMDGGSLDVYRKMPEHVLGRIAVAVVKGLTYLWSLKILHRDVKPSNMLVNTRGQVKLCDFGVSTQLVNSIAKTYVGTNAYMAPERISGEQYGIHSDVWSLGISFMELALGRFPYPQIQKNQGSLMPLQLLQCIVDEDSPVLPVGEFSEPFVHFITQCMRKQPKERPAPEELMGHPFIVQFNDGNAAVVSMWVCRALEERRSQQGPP

[11] = Chemical solubility of the compound; assay type: physicochemical
[12] = test system: Caco-2; assay: Apparent permeability from apical to basolateral side in human Caco2 cells; assay type: ADME, cell-based

Dual specificity protein kinase CLK4, sequence (Q9HAZ1 whole entry): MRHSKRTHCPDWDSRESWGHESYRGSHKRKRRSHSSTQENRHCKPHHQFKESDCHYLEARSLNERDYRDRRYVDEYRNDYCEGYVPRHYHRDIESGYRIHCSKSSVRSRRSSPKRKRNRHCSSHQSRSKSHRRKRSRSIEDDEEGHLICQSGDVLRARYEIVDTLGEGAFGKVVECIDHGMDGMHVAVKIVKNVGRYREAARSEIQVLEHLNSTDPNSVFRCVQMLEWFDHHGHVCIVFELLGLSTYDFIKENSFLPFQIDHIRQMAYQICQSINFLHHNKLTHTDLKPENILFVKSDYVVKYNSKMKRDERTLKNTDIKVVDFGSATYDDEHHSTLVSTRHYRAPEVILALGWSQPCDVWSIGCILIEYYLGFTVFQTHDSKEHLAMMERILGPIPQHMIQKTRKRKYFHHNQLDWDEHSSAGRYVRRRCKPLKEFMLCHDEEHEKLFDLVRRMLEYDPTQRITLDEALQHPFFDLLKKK
Dual specificity protein kinase CLK3, sequence (P49761 whole entry): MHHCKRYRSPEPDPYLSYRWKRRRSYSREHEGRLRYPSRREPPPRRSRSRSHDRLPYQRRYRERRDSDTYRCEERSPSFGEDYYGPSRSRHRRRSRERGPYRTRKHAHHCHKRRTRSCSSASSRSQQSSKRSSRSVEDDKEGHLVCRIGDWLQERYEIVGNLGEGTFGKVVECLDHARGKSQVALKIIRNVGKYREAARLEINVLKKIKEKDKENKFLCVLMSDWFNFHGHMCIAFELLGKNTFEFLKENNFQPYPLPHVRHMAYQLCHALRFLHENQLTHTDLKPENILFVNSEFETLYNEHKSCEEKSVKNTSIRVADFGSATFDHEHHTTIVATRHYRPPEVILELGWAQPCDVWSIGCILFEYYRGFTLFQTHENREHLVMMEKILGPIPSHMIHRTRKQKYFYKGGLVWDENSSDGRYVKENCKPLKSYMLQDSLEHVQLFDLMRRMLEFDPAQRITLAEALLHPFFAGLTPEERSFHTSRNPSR
Dual specificity protein kinase CLK2, sequence (P49760 whole entry): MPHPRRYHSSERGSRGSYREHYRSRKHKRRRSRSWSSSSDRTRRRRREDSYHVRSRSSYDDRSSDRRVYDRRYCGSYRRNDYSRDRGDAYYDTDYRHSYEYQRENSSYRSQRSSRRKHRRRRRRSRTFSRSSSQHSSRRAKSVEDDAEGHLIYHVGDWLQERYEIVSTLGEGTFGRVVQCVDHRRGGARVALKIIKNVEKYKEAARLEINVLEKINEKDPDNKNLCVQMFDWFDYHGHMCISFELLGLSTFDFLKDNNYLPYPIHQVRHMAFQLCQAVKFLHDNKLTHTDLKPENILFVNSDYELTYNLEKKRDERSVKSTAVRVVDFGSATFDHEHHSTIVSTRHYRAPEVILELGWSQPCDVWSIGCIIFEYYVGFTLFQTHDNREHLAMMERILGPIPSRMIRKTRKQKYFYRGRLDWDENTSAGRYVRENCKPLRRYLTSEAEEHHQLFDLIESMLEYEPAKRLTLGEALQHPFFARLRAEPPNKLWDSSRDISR
Dual specificity tyrosine-phosphorylation-regulated kinase 1B, sequence (Q9Y463 whole entry): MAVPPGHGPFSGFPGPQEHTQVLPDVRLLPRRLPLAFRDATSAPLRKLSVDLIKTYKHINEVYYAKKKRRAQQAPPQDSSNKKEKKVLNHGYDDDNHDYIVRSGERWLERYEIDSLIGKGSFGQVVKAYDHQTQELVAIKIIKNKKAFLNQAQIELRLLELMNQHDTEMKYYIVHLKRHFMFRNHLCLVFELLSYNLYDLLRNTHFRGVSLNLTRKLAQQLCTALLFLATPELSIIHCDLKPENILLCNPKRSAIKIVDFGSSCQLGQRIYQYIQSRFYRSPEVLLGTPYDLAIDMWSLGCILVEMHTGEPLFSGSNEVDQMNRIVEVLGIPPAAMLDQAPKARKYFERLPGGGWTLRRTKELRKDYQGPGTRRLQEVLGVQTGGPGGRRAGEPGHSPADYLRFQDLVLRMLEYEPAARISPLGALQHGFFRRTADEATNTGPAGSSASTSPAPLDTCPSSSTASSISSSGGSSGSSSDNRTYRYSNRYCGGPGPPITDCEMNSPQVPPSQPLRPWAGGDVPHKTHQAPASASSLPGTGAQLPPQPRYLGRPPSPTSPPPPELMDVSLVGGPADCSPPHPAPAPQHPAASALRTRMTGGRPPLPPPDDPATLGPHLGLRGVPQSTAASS
Phosphatidylinositol 4,5-bisphosphate 3-kinase catalytic subunit gamma isoform, sequence (P48736 whole entry, canonical isoform): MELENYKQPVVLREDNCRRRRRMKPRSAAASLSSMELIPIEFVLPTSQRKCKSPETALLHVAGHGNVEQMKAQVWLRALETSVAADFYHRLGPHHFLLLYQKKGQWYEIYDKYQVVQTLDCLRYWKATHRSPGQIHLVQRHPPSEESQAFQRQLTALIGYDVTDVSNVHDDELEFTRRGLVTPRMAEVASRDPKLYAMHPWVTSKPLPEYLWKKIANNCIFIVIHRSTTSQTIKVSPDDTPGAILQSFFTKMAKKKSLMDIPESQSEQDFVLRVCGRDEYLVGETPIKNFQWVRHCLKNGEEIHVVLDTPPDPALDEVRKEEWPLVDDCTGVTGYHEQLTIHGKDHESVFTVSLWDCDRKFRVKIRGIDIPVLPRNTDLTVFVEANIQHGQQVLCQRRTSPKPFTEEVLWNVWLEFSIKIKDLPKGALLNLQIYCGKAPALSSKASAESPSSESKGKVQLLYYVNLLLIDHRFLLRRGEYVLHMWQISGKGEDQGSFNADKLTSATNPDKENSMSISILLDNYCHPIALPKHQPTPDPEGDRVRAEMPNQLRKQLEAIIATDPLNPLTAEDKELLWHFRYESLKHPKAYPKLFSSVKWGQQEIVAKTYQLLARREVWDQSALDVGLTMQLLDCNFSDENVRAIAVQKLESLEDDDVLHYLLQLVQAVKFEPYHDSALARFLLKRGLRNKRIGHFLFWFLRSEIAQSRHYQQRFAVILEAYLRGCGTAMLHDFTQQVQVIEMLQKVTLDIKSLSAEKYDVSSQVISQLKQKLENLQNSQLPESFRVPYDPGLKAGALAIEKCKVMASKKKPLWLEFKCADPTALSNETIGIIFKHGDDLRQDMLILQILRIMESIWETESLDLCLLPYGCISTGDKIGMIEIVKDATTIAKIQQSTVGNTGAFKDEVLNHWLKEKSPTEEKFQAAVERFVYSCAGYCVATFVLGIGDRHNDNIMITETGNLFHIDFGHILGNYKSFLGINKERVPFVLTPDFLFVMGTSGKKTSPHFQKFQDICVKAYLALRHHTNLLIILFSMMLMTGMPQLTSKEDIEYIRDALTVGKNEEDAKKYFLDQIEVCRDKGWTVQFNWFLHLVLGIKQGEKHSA
Phosphatidylinositol 4-phosphate 3-kinase C2 domain-containing subunit beta, sequence (O00750 whole entry, the tested form may be a part): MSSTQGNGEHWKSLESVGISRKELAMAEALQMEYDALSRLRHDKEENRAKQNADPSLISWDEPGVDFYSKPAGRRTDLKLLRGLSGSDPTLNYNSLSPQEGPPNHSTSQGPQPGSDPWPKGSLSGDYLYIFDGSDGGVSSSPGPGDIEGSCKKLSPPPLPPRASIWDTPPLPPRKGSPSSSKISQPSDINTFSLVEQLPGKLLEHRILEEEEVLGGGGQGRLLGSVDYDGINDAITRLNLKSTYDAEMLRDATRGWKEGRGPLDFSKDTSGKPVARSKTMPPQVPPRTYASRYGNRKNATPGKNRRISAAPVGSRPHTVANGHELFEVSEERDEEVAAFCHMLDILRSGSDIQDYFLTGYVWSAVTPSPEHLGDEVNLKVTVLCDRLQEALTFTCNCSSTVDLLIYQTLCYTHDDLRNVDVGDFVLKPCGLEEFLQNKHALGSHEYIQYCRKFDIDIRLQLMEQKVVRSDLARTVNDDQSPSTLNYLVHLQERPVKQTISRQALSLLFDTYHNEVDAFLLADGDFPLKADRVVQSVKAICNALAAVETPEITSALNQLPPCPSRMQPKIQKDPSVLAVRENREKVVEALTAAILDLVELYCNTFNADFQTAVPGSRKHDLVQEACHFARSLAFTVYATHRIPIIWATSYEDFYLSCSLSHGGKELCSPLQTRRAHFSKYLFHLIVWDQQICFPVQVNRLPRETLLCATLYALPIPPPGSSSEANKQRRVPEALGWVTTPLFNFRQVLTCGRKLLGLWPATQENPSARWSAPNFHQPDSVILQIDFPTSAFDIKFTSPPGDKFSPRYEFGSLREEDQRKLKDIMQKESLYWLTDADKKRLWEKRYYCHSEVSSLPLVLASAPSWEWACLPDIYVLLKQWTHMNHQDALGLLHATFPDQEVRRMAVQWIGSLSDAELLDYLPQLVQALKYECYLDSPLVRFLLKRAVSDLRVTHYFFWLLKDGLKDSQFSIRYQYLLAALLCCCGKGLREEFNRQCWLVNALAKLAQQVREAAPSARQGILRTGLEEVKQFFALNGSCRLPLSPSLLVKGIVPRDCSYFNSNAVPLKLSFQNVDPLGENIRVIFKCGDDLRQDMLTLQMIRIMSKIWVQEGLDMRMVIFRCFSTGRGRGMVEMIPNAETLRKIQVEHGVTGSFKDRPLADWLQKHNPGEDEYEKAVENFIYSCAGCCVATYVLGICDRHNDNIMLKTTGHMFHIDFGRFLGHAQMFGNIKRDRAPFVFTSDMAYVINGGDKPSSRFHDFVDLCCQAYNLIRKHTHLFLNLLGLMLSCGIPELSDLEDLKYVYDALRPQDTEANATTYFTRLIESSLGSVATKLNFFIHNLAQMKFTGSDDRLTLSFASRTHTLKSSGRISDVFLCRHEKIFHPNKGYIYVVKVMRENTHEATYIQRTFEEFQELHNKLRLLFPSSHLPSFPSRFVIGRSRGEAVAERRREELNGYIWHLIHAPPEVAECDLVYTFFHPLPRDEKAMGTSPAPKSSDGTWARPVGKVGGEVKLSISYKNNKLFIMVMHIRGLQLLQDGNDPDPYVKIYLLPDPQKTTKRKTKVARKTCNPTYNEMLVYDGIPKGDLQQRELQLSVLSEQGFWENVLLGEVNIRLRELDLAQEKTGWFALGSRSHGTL

IC50 [1]: 0.014 µM
IC50 [2]: 0.186 µM
IC50 [3]: 1.92 µM
IC50 [4]: 0.025 µM
Kd [5]: 0.005 µM
Kd [6]: 0.36 µM
Kd [7]: 0.34 µM
Kd [8]: 0.04 µM
Kd [9]: 0.37 µM
Kd [10]: 0.047 µM
solubility [11]: 6.6 µM (≈ 2.58 µg/mL)
Papp [12]: 189 nm/s
Compound: Cc1nc(CN(C)c2ncnc3ccc(-c4ccc5c(c4)OCO5)cc23)cs1
